Assay results: patent US7691805B2, “Antimicrobial compounds” (Neobiotics AB, priority 2004, dated 2010)
≈ marks a conversion by molar mass, not a printed value. Non-standard residues stand in square brackets, D forms with d. dPhg = N[C@@H](C(=O)O)c1ccccc1

How the values were obtained:
bacteria = test: Anti-bacterial activity (tables of particularly interesting compounds); assay type: cell-based; set-up: key: + indicates that the compound show effects
virus = test: Anti-viral activity (tables of particularly interesting compounds); assay type: cell-based; set-up: key: + indicates that the compound show effects; conditions: compounds listed by R4 or R1 residue
[1] = tested on: Staphylococci incl. multiresistant MRSA; test: Agar well diffusion; conditions: 40 ul of 1 mg/ml in DMSO per well
[2] = tested on: CNS incl. resistant and multiresistant MRSE; test: Agar well diffusion; conditions: 40 ul of 1 mg/ml in DMSO per well
Streptococcus: group B = test: Agar well diffusion; conditions: 40 ul of 1 mg/ml in DMSO per well
Streptococcus: group C = test: Agar well diffusion; conditions: 40 ul of 1 mg/ml in DMSO per well
[3] = tested on: α-haemolytic Streptococci; test: Agar well diffusion; conditions: 40 ul of 1 mg/ml in DMSO per well
MRSA = test: Growth inhibition of clinical isolates; conditions: approximately 100 strains of MRSA, several with additional resistance markers
[4] = tested on: Aspergillus niger ATCC 16404; test: Antifungal MIC in Sabouraud broth; assay type: cell-based; conditions: 25° C. for 7 days; inoculum 10^3-10^4 cfu/ml
Description: (§1) The minimal inhibitory concentration (MIC) was determined using a method with Sabouraud broth (Becton Dickinson) and an initial inoculum 10^3-10^4 cfu/ml. Polypropylene 96-well plates (Nunc) were incubated at 25° C. for 48 h (for Candida albicans ATCC 10231) or 7 days (for Aspergillus niger ATCC 16404). The MIC was taken as the lowest drug concentration at which noticeable growth was inhibited. The experiments were performed in duplicate.

[5] = tested on: Candida albicans ATCC 10231; test: Antifungal MIC in Sabouraud broth; assay type: cell-based; conditions: 25° C. for 48 h; inoculum 10^3-10^4 cfu/ml
Description: as §1

S.aureus = test: MIC by broth dilution; assay type: cell-based; conditions: growth media without DMSO
Description: (§2) MIC/MBC determinations were performed by broth dilution according to established procedures, well known for a person skilled in the art.

GAS = test: MIC by broth dilution; assay type: cell-based, group A Streptococci; conditions: growth media without DMSO
Description: as §2

Solubility = assay type: physicochemical; conditions: KCl gradient eluent during ion exchange isolation
streptococcal challenge = test: Lethal streptococcal challenge in the mouse; assay type: in vivo
labial herpes = test: Topical application in softening cream to a beginning labial herpes outbreak; assay type: in vivo, human; conditions: 0.2 ml solution (0.1 g/l) in softening cream on the lip; performed twice
Description: Cp1 was added to a softening cream and 0.2 ml solution (0.1 g/l) was applied to an area of a beginning labial herpes outbreak on the lip of a person. After 3-4 hours the symptoms was gone. The experiment was performed twice.

Streptococcus: group G = test: Agar well diffusion; conditions: 40 ul of 1 mg/ml in DMSO per well
Streptococcus: group A = test: Agar well diffusion; conditions: 40 ul of 1 mg/ml in DMSO per well
L. monocytogenes = test: Agar well diffusion; conditions: 40 ul of 1 mg/ml in DMSO per well
S. pneumoniae = test: Agar well diffusion; conditions: 40 ul of 1 mg/ml in DMSO per well
[6] = tested on: E. coli and other Gram-negatives; test: Agar well diffusion; conditions: for antibacterial effect: E. coli and other Gram-negatives, 40 ul of 1 mg/ml in DMSO per well
[7] = tested on: HSV-1 F (Herpes Simplex Virus); test: Antiviral inhibition analysis and plaque counting test in GMK AH 1 cells; assay type: cell-based; conditions: 0.4 mM in 1% DMSO; analysed in the same way as Cystapep 1
poliovirus type 1 = assay type: cell-based; conditions: 0.4 mM in 1% DMSO; analysed in the same way as Cystapep 1
[8] = compounds listed by R4 or R1 residue
[9] = peptide analogues and cyclic compounds

Molecule | Activity Anti-bacterial (bacteria; [8]) | antibacterial effect [1] | antibacterial effect [2] | antibacterial effect (Streptococcus: group B) | antibacterial effect (Streptococcus: group C) | antibacterial effect [3] | growth inhibition of MRSA strains (MRSA) | antibacterial effect (Streptococcus: group G) | antibacterial effect (Streptococcus: group A) | antibacterial effect (S. pneumoniae) | antibacterial effect [6] | other results
CC(=O)N[C@H](Cc1ccccc1)C(=O)NCC(NC(=O)C(CC(C)C)NC(=O)C(CCCNC(=N)N)NC(=O)OCc1ccccc1)C(C)C (stereo partly drawn) [Acetyl-D-phenylalanoyl] | + |  |  |  |  |  |  |  |  |  |  | Activity Anti-viral (virus): +
CC(C)C(CNC(=O)/C=C/c1ccccc1)NC(=O)CNC(=O)C(CCCNC(=N)N)NC(=O)OCc1ccccc1 (stereo not drawn) [(Gly^3)Cp1] |  | + | + | + | + | − | strongly inhibited in their growth |  |  |  |  | 
CC(C)CC(NC(=O)C(CCCN=C(N)N)NC(=O)OCc1ccccc1)C(=O)N[C@H](CNC(=O)/C=C/c1ccccc1)C(C)C (stereo in doubt) [Cp1, (2S)-2-[(N^α-Benzyloxycarbonyl-Arginyl-Leucyl)-Amino]-1-Trans-Cinnamoylamino-3-Methylbutane] |  | + | + | + | + | − | strongly inhibited in their growth | + | + | + | − | MIC Aspergillus niger ATCC 16404 [4]: 64 µg/mL (≈ 101 µM); MIC Candida albicans ATCC 10231 [5]: 32 µg/ml; MIC (S.aureus): approximately 16 mg/L; MIC (GAS): approximately 16 mg/L; solubility in the presence of salts (Solubility): weak solubility; protective capacity for lethal streptococcal challenge (streptococcal challenge): strong protective capacity; time after which the symptoms were gone (labial herpes): 3 to 4 h; antibacterial effect (L. monocytogenes): +; activity against gram-negative bacteria [6]: low or no activity
CC(C)CC(CNC(=O)/C=C/c1ccccc1)NC(=O)C(CC(C)C)NC(=O)C(CCCNC(=N)N)NC(=O)OCc1ccccc1 (stereo not drawn) [(Leu^4)Cp1] |  | + | + | + | + | − | strongly inhibited in their growth | + | + | + | − | effect against HSV-1 [7]: found to have effect; effect against polio (poliovirus type 1): found to have effect
CC(C)CC(NC(=O)C(CCCNC(=N)N)NC(=O)OCc1ccccc1)C(=O)NC(CNC(=O)/C=C/c1ccccc1)Cc1ccccc1 (stereo not drawn) [(Phe^4)Cp1] |  | + | + | + | + | − | strongly inhibited in their growth | + | + | + | − | effect against HSV-1 [7]: found to have effect; effect against polio (poliovirus type 1): found to have effect
CC(=O)NC(Cc1ccccc1)C(=O)NCC(NC(=O)C(CC(C)C)NC(=O)C(CCCNC(=N)N)NC(=O)OCc1ccccc1)C(C)C (stereo not drawn) [(AcPhe^5)Cp1] |  | + | + | + | + | − | strongly inhibited in their growth | + | + | + | − | antibacterial effect (L. monocytogenes): +
cyclo(Tyr-Arg-Leu-Val-Tyr-Arg-Leu-Val) (YRLVYRLV; cyclic; printed: Tyr-Arg-Leu-Val-Tyr-Arg-Leu-Val) |  |  |  |  |  |  |  |  |  |  |  | Activity Anti-bacterial (bacteria; [9]): +
CC(=O)N[C@@H](Cc1ccccc1)C(=O)NCC(NC(=O)C(CC(C)C)NC(=O)C(CCCNC(=N)N)NC(=O)OCc1ccccc1)C(C)C (stereo partly drawn) [Acetyl-L-phenylalanoyl] | + |  |  |  |  |  |  |  |  |  |  | Activity Anti-viral (virus): +
CC(C)CC(NC(=O)C(CCCNC(=N)N)NC(=O)OCc1ccccc1)C(=O)NC(CNC(=O)[C@@H](Br)Cc1ccccc1)C(C)C (stereo partly drawn) [Compound L-2-bromo-3-phenylpropionyl] | + |  |  |  |  |  |  |  |  |  |  | 
CC(C)CC(NC(=O)C(CCCNC(=N)N)NC(=O)OCc1ccccc1)C(=O)NC(CNC(=O)/C=C/S(=O)(=O)Cc1ccccc1)C(C)C (stereo not drawn) [trans-3-benzylsulphonylacroyl] | + |  |  |  |  |  |  |  |  |  |  | 
CC(C)CC(NC(=O)C(CCCNC(=N)N)NC(=O)OCc1ccccc1)C(=O)NC(CNC(=O)/C=C/c1ccccc1)C(C)C (stereo not drawn) [trans-cinnamoyl] |  |  |  |  |  |  |  |  |  |  |  | Activity Anti-viral (virus): +
cyclo([dPhg]RLV[dPhg]RLV) |  |  |  |  |  |  |  |  |  |  |  | Activity Anti-bacterial (bacteria; [9]): +
